From patent US20240091215A1, “TASQUINIMOD OR A PHARMACEUTICALLY ACCEPTABLE SALT THEREOF FOR USE IN THE TREATMENT OF MYELODYSPLASTIC SYNDROME” (ACTIVE BIOTECH AB, priority 2021, published 2024)

Legend:
[1] = test system: MDS MSC co-cultured with hematopoietic progenitor cells; experiment: CFU assay with cells harvested after one week of MSC/HSPC co-culture; format: cell-based, human; conditions: colonies counted after 2 weeks
Description: FIG. 6b is a bar chart showing the number of colonies/300 cells in CFU assays performed using MDS MSC cells cocultured with hematopoietic progenitor cells, harvested after one week of co-culture in the presence of S100A9 or in the presence of both S100A9 and tasquinimod or in the absence of both S100A9 and tasquinimod (“control”), with 300 cells being plated in enriched methylcellulose medium with recombinant cytokines (MethoCult™ H4435, STEMCELL Technologies). Colonies were counted after 2 weeks and classified under a microscope or with the STEMvision™ system (STEMCELL Technologies). FIG. 6c is a bar chart showing the number of colonies/300 cells in CFU assays performed using MDS MSC cells and hematopoietic progenitor cells, harvested after one week of co-culture in the presence (“TASQ”) or absence (“without”) of tasquinimod, with 300 cells being plated in enriched methylcellulose medium with recombinant cytokines (MethoCult™ H4435, STEMCELL Technologies). Colonies were counted after 2 weeks and classified under a microscope or with the STEMvision™ system (STEMCELL Technologies). […] Colonies were counted after 2 weeks and classified under a microscope or with the STEMvision™ system (STEMCELL Technologies).

[2] = test system: IL-1β, IL-18, Casp1 and PD-L1 mRNA in MDS MSCs; experiment: RT-PCR mRNA expression of IL-1β, IL-18, caspase 1 and PD-L1 in MDS MSCs treated with S100A9 with or without tasquinimod; format: cell-based, human; conditions: 48 h
Method: FIG. 3 is a bar chart representing the mRNA expression levels of IL-1β, IL-18, Casp1 and PD-L1 by real-time PCR of MDS MSCs after 48 h treatment with tasquinimod only (TASQ), with S100A9 only (S100A9), or with both S100A9 and tasquinimod (S100A9+TASQ). Amplicons for IL-1β, IL-18, Casp1 and PD-L1 were normalized to endogenous GAPDH expression and the untreated MSCs were set to 1 (=control).
(§1) BM mononuclear cells were isolated by percoll gradient centrifugation and MSCs were grown as adherent monolayer in DMEM/10% FCS. Passages 2-5 were used for the experiments.
(§2) To mimic inflammatory conditions, in-vitro cultured MSCs were treated with recombinant S100A8, S100A9 or the S100A8/9 heterodimer (each 1.5 μg/ml) or TNF-α (10 ng/ml) in the presence or absence of tasquinimod (10 μM) for different time periods depending on the subsequent experiments. Hematopoietic stem and progenitor cells (HSPCs) for cocultures were isolated using CD34 antibody-conjugated magnetic beads, according to the manufacturer's instructions (Miltenyi Biotec) and were added in CellGro medium (CellGenix) containing stem cell factor (SCF), FLT3-L and IL-3 (10 ng/ml each).
(§3) RNA was isolated from MSC using RNeasy Mini Kit (Qiagen) and reverse transcribed into cDNA using RevertAid™ cDNA synthesis kit (Thermo Fisher) with oligo-dT primers. Relative target quantity was determined using the comparative CT (ΔΔCT) method. RT-PCR was performed using SYBR Green/ROX PCR master mix (Thermo) and target specific primers for caspasel, IL1β, IL18, PD-L1, PD-1 and GAPDH as housekeeping gene on a Taqman™ Fast 3500 cycler (Applied Biosystems). Amplicons were normalized to endogenous GAPDH control.

MDS MSCs = experiment: MSC differentiation assays (adipogenic, osteogenic); format: cell-based, human
Method: Adipogenic and osteogenic differentiation capacity is an important functional feature of MSCs and often altered in MDS leading to changes in the bone metabolism. Therefore, the effect of tasquinimod on adipogenic and osteogenic differentiation was assayed as follows.
MSCs were seeded in 6-well plates (5×10^3 MSCs/cm^2), cultured to subconfluency for approximately 4 days in DMEM, and subjected to adipogenic (0.5 mM […], 1 μM dexamethasone, 100 μM indomethacin, 10 μM insulin) or osteogenic (0.1 μM dexamethasone, 0.2 mM ascorbate-2-phosphate, 10 mM β-glycerophosphate) differentiation. […] Differentiation was graded according to microscopic analysis as follows: 0=no differentiation; 1=25% of the culture wells contain differentiated cells; 2=50% of the culture wells contain differentiated cells; 3=75% of the culture wells contain differentiated cells; 4=100% of the culture wells contain differentiated cells. Osteogenesis was determined by van Kossa staining, and the catalytic activity of ALP was determined.

[3] = test system: genetically modified mice (e.g. B6; 129-Trp53bp^tm1Jc/J and NUP98/HOXD13); experiment: In vivo validation in genetically modified mice developing signs of MDS; conditions: MDS mouse models, blood counts weekly, bone marrow after 20 weeks
Method: The promising in vitro results are validated in vivo in different mouse models. In these models, genetically modified mice (e.g. B6; 129-Trp53bp^tm1Jc/J and NUP98/HOXD13) which develop typical signs of MDS such as anemia and cytopenia are treated with tasquinimod. Peripheral blood counts are recorded weekly and finally the bone marrow is analysed after 20 weeks.

[4] = test system: PD-L1 in healthy and CMML MSCs; experiment: Western blot of PD-L1 in healthy and CMML MSCs; format: cell-based, human; conditions: 48 h; for PD-L1 expression in the absence of S100A9: tasquinimod alone
Method: Lane 1=untreated control; lane 2=treated with tasquinimod; lane 3=treated with S100A9; […] tasquinimod.
as §1, §2
(§4) Whole cell lysates were prepared using RIPA lysis buffer containing proteinase inhibitors. Protein concentrations were determined using the BCA Protein Assay Kit. Equal protein amounts were separated by SDS-polyacrylamide gel electrophoresis and transferred to polyvinylidene fluoride membranes for detection of specific proteins using primary antibodies for IRAK1, NF-κB-p65, gasdermin and OXPHOS overnight at 4° C., following secondary antibodies HRP-conjugated goat anti-mouse IgG (Invitrogen) or donkey anti-rabbit IgG (GE Healthcare), respectively. The blots were incubated with ECL Plus Western Blotting reagent (Amersham) and the signals captured using a LAS3000 imaging system.

[5] = test system: MDS MSC co-cultured with hematopoietic progenitor cells; experiment: CAF-C assay, MSC/HSPC co-culture with pre-treated stromal layers; format: cell-based, human; conditions: stromal layers pre-treated with S100A9 and tasquinimod, one to four weeks
Method: FIG. 6a is a bar chart showing quantification of CAF-C when co-culturing MDS MSC with hematopoietic progenitor cells, after one, two, three and four weeks without the presence of either S100A9 or tasquinimod (“without”), in the presence of tasquinimod (TASQ), in the presence of S100A9 (S100A9), and in the presence of both s100A9 and tasquinimod (S100A9+TASQ).
as §2
CAF-C assays were performed over four weeks using pre-treated healthy or MDS MSC layers. One thousand magnetically isolated CD34+ cells were added in StemMACS™ HSC-CFU complete medium (Miltenyi Biotec).

MSCs [6] = experiment: Seahorse Metabolic Extracellular Flux Profiling (Cell Mito Stress Test); format: cell-based, human
Method: The impact of tasquinimod on cellular metabolism is investigated by using the Seahorse system (Agilent Technologies). MSCs are seeded in Seahorse 96-well plates. Cell Mito Stress Test (XF Cell Mito Stress Test Kit, Agilent Technologies) is performed following the standard protocol. Oxygen consumption rate (OCR) and Extracellular Acidification Rate (ECAR) are detected after injection of oligomycin ([…]), carbonyl cyanide-p-trifluoromethoxyphenylhydrazone (FCCP, […]), and the combination of rotenone and antimycin (Rot/AA, […]). OCR is measured with an XF96 analyzer and the Wave software (version 2.2.0).

MSCs [7] = experiment: CellROX Deep Red Flow Cytometry Assay of ROS levels; format: cell-based, human
Method: The inflammatory micromilieu of the myelodysplastic bone marrow leads to increased ROS levels which may cause aberrant cellular function. Therefore, the effect of tasquinimod on ROS levels in MSCs is assayed using the CellROX™ Deep Red Flow Cytometry Assay kit (Thermo Fisher) according to the manufacturer's instructions.

PD-L1 = conditions: Oncoimmunology 2016, Vol. 5, No. 6, e1145333; cited from earlier work
PD-1 = PD-1 expression (RT-PCR) in MSC/HSPC co-cultures; format: cell-based, human; conditions: summary statement; PD-1 measured in co-cultured HSPCs
Method: as §2
as §3, with “RNA was isolated from MSC using RNeasy Mini Kit (Qiagen) and reverse transcribed into cDNA using RevertAid™ cDNA synthesis kit (Thermo Fisher) with oligo-dT primers.” left out

αSMA and NF-κB in MSCs = experiment: Immunofluorescence staining and confocal microscopy of S100A9/tasquinimod treated MSCs; format: cell-based, human
Method: as §2
S100A9/tasquninimod treated MSCs were fixed with 4% paraformaldehyde. Cells were permeabilized using PBS containing 0.1% Triton™ X-100 (T-PBS), blocked with T-PBS containing 10% FCS and 1% HSA (IF-Buffer) and incubated over night at 4° C. with antibodies against αSMA, NFκB or PD-L1. Secondary antibodies polyclonal sheep-anti-rabbit-Cy3 or polyclonal goat-anti-mouse-Cy2 were incubated for 1 h at room temperature. Cell nuclei were counterstained with DAPI. Imaging analysis was performed by confocal microscopy (LSM800, Carl Zeiss) and ZEN software.

[8] = test system: IRAK1, NF-κB-p65 and gasdermin in MDS MSCs; experiment: Western blot of IRAK1, NF-κB-p65 and gasdermin in MDS MSCs treated with S100A9 with or without tasquinimod; format: cell-based, human; conditions: S100A9 1.5 μg/ml, tasquinimod 10 μM, 48 h
Method: GAPDH (38 kDa) served as reference protein. Lane 1=untreated control; lane 2=treated with S100A9; lane 3=treated with S100A9/tasquinimod.
as §1, §2, §4

[9] = test system: IRAK1, NF-κB-p65 and gasdermin in MDS MSCs; experiment: Western blot of IRAK1, NF-κB-p65 and gasdermin in MDS MSCs treated with TNF-α with or without tasquinimod; format: cell-based, human; conditions: MSC cultures, TNF-α 10 ng/ml, tasquinimod 10 μM, 48 h
Method: GAPDH (38 kDa) served as reference protein. Lane 1=treated with TNF-α; lane 2=treated with TNF-α and tasquinimod.
as §2, §4

[10] = MDS MSCs, S100A9-induced increase, tasquinimod 10 μM
[11] = MSCs, induced by S100A9, tasquinimod 10 μM

With `COc1cccc2c1c(O)c(C(=O)N(C)c1ccc(C(F)(F)F)cc1)c(=O)n2C` [tasquinimod, 4-hydroxy-5-methoxy-N,1-dimethyl-2-oxo-N-[4-(trifluoromethyl)phenyl]-1,2-dihydroquinoline-3-carboxamide] the “number of CFUs” value [1] was “increased”, the “mRNA expression of IL-1β” value [2, 10] was “this increase was inhibited” and the “mRNA expression of IL-18” value [2, 10] was “this increase was inhibited”. The “mRNA expression of caspase 1” value [2, 10] was “this increase was inhibited”, the “PD-L1 expression at the mRNA level” value [2, 11] was “suppressed” and the “decrease in number of adipocytes (Oil red O positive cells)” value (MDS MSCs; MDS MSCs, after 14 days of cultivation in differentiation medium) was 25-50%. For the same compound, the adipogenic differentiation (MDS MSCs; MSC differentiation assay) was “reducing”, the osteogenic differentiation (MDS MSCs; MSC differentiation assay) was “improving” and the “restoration of functional hematopoiesis” value [3] was “partly restore functional hematopoiesis”. For the same compound, the “PD-L1 expression in the absence of S100A9” value ([4]; MSC from CMML MDS patients) was “downregulation of PD-L1”, the “PD-L1 expression in the absence of S100A9” value ([4]; MSC from healthy volunteers) was “downregulation of PD-L1” and the “PD-L1 expression at the protein level” value [4, 11] was “suppressed”. The “number of CAF-Cs” value [5] was “increased”, the “Spare Respiratory Capacity” value (MSCs [6]) was “improved” and the cellular stress (MSCs [6]) was “reduced cellular stress”. The “ROS levels in MSCs” value (MSCs [7]) was “block elevated ROS levels”, the “expression of PD-L1, previously reported” value (PD-L1) was “upregulate expression of PD-L1” and the PD-1 expression (PD-1) was “inhibition”. The “NF-kB (nuclear) expression in MSCs” value (αSMA and NF-κB in MSCs) was “reduces”, the “αSMA expression in MSCs” value (αSMA and NF-κB in MSCs) was “reduces” and the “expression of IRAK1 (Western blot)” value [8] was “inhibited the expression”. For the same compound, the “expression of NF-κB-p65 (Western blot)” value [8] was “inhibited the expression”, the “expression of gasdermin (Western blot)” value [8] was “inhibited the expression” and the “expression of IRAK1 (Western blot)” value [9] was “inhibited the expression”. The “expression of NF-κB-p65 (Western blot)” value [9] was “inhibited the expression” and the “expression of gasdermin (Western blot)” value [9] was “inhibited the expression”.
